# Tests used:
# Assay in all cases: radiometric filter-binding kinase assay, Kinase HotSpot
# Details in all cases: compound 0.5 µM; ATP 10 µM
# MAP3K8 (human) = MAP3K8 (human) (UniProt P41279)
# FLT1 (human) = FLT1 (human) (UniProt P17948)
# PDPK1 (human) = PDPK1 (human) (UniProt O15530)
# CLK2 (human) = CLK2 (human) (UniProt P49760)
# INSR (human) = INSR (human) (UniProt P06213)
# FGFR1 (human) = FGFR1 (human) (UniProt P11362)
# PDGFRB (human) = PDGFRB (human) (UniProt P09619)
# GSK3A (human) = GSK3A (human) (UniProt P49840)
# GSK3A (human), sequence (P49840 whole entry, looked up): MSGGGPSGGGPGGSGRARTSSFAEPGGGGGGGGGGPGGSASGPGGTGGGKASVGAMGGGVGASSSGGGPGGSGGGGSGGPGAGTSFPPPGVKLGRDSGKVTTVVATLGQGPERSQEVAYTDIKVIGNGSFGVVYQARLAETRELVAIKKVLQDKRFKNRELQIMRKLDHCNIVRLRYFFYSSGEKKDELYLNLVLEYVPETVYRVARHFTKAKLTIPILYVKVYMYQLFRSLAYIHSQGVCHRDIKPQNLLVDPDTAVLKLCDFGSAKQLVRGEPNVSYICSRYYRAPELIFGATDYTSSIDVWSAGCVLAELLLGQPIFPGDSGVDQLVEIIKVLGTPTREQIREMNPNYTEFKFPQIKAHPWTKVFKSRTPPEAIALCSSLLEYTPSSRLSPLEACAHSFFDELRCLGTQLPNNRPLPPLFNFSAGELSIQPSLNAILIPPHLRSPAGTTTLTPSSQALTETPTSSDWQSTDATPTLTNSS
# PHKG2 (human) = PHKG2 (human) (UniProt P15735)
# MARK1 (human) = MARK1 (human) (UniProt Q9P0L2)
# MARK1 (human), sequence (Q9P0L2 whole entry, looked up): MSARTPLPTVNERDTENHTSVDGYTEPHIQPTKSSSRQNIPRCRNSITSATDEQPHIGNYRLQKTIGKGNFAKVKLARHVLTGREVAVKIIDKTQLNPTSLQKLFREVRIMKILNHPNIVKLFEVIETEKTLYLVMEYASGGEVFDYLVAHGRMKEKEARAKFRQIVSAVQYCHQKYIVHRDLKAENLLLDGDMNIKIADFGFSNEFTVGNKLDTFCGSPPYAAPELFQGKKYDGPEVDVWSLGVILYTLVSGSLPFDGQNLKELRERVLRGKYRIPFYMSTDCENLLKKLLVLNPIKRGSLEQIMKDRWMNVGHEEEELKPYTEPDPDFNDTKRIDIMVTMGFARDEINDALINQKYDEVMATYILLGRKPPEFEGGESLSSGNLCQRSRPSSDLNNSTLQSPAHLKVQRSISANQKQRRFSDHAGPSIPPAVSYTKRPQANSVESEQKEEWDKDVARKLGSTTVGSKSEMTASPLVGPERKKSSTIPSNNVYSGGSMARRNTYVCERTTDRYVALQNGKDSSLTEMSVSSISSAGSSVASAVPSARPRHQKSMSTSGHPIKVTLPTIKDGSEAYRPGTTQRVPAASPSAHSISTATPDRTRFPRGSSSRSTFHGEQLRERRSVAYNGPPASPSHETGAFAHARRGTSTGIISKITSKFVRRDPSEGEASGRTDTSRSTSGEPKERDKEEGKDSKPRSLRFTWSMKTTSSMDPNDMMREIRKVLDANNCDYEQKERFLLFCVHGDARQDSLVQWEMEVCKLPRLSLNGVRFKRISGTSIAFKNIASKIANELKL
# MAPK12 (human) = MAPK12 (human) (UniProt P53778)
# PRKCB1 (human) = PRKCB1 (human) (UniProt P05771)
# PLK2 (human) = PLK2 (human) (UniProt Q9NYY3)
# RPS6KB1 (human) = RPS6KB1 (human) (UniProt P23443)
# AURKB (human) = AURKB (human) (UniProt Q96GD4)
# AURKB (human), sequence (Q96GD4 whole entry, looked up): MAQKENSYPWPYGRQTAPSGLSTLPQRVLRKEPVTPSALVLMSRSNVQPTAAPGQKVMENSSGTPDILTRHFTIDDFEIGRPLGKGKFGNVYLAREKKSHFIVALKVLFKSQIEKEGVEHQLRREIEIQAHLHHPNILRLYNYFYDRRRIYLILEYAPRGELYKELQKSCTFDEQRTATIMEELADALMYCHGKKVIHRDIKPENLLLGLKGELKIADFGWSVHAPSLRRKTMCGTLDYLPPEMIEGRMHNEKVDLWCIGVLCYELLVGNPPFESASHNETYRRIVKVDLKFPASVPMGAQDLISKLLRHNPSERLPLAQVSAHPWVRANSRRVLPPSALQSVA
# TSSK2 (human) = TSSK2 (human) (UniProt Q96PF2)
# FGFR2 (human) = FGFR2 (human) (UniProt P21802)
# PRKD3 (human) = PRKD3 (human) (UniProt O94806)
# MAPK1 (human) = MAPK1 (human) (UniProt P28482)
# JAK2 JH1 JH2 (human) = JAK2 JH1 JH2 (human) (UniProt O60674)
# TBK1 (human) = TBK1 (human) (UniProt Q9UHD2)
# TBK1 (human), sequence (Q9UHD2 whole entry, looked up): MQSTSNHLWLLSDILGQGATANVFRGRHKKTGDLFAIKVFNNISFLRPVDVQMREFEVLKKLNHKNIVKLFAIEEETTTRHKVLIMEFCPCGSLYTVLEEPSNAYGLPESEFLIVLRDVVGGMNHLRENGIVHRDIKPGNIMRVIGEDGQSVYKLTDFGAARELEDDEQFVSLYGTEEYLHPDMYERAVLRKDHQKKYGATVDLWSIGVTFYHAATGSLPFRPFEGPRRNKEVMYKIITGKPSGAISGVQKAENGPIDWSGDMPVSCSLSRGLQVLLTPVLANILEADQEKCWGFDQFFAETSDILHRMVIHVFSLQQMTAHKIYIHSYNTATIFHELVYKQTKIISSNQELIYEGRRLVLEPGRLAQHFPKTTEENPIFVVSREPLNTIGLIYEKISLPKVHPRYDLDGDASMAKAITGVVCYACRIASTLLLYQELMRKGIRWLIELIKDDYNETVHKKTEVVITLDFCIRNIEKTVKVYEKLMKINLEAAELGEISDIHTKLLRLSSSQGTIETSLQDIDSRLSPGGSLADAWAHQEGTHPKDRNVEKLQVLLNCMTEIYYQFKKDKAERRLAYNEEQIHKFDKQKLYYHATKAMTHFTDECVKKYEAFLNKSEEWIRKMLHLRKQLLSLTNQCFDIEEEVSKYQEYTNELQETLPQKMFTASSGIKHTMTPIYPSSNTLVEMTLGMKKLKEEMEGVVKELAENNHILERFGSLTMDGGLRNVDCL
# PLK1 (human) = PLK1 (human) (UniProt P53350)
# WNK2 (human) = WNK2 (human) (UniProt Q9Y3S1)
# RPS6KA1 KD1 KD2 (human) = RPS6KA1 KD1 KD2 (human) (UniProt Q15418)
# PAK3 (human) = PAK3 (human) (UniProt O75914)
# FYN (human) = FYN (human) (UniProt P06241)
# ERBB2 (human) = ERBB2 (human) (UniProt P04626)
# GRK6 (human) = GRK6 (human) (UniProt P43250)
# MAPK13 (human) = MAPK13 (human) (UniProt O15264)
# PRKACA (human) = PRKACA (human) (UniProt P17612)
# MAPKAPK5 (human) = MAPKAPK5 (human) (UniProt Q8IW41)
# PIM2 (human) = PIM2 (human) (UniProt Q9P1W9)
# MUSK (human) = MUSK (human) (UniProt O15146)
# TYRO3 (human) = TYRO3 (human) (UniProt Q06418)
# EPHB1 (human) = EPHB1 (human) (UniProt P54762)
# PRKCE (human) = PRKCE (human) (UniProt Q02156)
# PRKCE (human), sequence (Q02156 whole entry, looked up): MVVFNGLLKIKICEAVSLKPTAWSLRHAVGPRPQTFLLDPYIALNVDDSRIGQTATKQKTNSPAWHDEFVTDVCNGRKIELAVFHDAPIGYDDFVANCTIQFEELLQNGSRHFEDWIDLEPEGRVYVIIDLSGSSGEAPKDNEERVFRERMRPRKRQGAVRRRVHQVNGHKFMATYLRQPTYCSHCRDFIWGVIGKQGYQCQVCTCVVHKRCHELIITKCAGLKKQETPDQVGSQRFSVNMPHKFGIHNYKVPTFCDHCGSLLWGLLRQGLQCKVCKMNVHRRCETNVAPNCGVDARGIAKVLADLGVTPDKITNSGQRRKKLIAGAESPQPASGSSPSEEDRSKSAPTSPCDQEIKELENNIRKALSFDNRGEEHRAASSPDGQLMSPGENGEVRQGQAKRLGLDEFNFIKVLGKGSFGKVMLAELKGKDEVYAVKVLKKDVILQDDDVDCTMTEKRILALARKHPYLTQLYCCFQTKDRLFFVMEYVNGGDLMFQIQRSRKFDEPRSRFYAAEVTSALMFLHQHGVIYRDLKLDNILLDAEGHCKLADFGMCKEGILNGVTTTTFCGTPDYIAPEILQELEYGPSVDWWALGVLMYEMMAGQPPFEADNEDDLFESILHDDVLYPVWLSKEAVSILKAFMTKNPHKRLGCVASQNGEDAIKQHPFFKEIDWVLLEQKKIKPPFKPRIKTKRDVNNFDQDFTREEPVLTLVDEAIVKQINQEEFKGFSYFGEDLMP
# ULK2 (human) = ULK2 (human) (UniProt Q8IYT8)
# INSRR (human) = INSRR (human) (UniProt P14616)
# INSRR (human), sequence (P14616 whole entry, looked up): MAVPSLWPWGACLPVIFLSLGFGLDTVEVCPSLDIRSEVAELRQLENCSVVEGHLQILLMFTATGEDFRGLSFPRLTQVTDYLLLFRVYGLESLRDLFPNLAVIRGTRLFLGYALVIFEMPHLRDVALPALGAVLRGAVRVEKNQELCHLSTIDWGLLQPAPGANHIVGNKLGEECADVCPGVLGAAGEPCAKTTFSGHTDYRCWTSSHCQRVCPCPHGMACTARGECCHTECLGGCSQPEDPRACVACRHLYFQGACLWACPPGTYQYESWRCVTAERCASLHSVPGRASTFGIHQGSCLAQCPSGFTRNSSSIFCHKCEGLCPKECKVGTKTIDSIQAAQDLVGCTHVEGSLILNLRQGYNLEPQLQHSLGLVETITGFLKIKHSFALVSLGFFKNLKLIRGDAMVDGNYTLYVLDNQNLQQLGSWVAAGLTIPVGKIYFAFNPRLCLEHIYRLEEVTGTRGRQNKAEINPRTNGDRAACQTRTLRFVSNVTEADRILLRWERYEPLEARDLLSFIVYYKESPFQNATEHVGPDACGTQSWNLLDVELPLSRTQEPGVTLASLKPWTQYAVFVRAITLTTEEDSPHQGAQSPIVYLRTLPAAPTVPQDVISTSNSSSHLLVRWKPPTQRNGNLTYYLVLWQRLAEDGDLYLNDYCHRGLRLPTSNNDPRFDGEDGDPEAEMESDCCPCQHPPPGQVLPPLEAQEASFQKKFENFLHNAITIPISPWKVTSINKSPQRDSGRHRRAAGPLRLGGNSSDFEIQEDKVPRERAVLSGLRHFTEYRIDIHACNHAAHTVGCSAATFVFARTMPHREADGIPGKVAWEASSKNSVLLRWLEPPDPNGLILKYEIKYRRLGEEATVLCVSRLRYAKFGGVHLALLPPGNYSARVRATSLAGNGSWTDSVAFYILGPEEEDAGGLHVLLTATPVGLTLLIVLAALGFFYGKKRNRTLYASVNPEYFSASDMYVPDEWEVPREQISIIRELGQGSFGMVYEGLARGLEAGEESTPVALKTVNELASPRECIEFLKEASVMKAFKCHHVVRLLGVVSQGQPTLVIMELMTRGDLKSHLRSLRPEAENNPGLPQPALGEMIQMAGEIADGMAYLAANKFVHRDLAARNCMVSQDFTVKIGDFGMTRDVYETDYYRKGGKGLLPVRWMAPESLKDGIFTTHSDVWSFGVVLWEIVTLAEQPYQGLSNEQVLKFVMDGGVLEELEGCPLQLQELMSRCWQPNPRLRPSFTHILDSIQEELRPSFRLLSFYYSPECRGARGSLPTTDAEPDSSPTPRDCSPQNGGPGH
# DAPK2 (human) = DAPK2 (human) (UniProt Q9UIK4)
# MARK2 (human) = MARK2 (human) (UniProt Q7KZI7)
# MAPK14 (human) = MAPK14 (human) (UniProt Q16539)
# AURKA (human) = AURKA (human) (UniProt O14965)
# MAP3K8 (human), sequence (P41279 whole entry, looked up): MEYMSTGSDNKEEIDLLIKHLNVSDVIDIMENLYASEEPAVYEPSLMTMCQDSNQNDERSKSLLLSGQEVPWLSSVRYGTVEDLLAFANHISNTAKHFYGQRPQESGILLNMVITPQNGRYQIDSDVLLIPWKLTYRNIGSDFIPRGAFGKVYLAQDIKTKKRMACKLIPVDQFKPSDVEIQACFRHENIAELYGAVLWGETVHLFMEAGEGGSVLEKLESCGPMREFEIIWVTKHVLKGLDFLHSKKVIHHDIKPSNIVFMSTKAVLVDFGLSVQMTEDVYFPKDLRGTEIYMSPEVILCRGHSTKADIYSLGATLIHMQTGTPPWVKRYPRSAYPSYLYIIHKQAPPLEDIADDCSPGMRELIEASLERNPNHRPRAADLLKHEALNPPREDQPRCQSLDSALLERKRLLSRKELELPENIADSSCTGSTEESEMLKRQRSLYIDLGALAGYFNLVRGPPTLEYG
structure (smiles),measurement,setting,value
O=C(Nc1cccc(Nc2nccc(Nc3cccc(C(F)(F)F)c3)n2)c1)C1CC1,residual activity,MAP3K8 (human),111%
same,residual activity,FLT1 (human),97%
same,residual activity,PDPK1 (human),104%
same,residual activity,CLK2 (human),87.6%
same,residual activity,INSR (human),89.8%
same,residual activity,FGFR1 (human),99.6%
same,residual activity,PDGFRB (human),101%
same,residual activity,GSK3A (human),95%
same,residual activity,PHKG2 (human),107%
same,residual activity,MARK1 (human),104%
same,residual activity,MAPK12 (human),99.7%
same,residual activity,PRKCB1 (human),94.7%
same,residual activity,PLK2 (human),99.5%
same,residual activity,RPS6KB1 (human),98%
same,residual activity,AURKB (human),72.8%
same,residual activity,TSSK2 (human),97.1%
same,residual activity,FGFR2 (human),103%
same,residual activity,PRKD3 (human),91.9%
same,residual activity,MAPK1 (human),89%
same,residual activity,JAK2 JH1 JH2 (human),47.7%
same,residual activity,TBK1 (human),91%
same,residual activity,PLK1 (human),91.7%
same,residual activity,WNK2 (human),122%
same,residual activity,RPS6KA1 KD1 KD2 (human),92.8%
same,residual activity,PAK3 (human),98.9%
same,residual activity,FYN (human),54.1%
same,residual activity,ERBB2 (human),93.8%
same,residual activity,GRK6 (human),93.8%
same,residual activity,MAPK13 (human),99.6%
same,residual activity,PRKACA (human),91.7%
same,residual activity,MAPKAPK5 (human),91.9%
same,residual activity,PIM2 (human),112%
same,residual activity,MUSK (human),101%
same,residual activity,TYRO3 (human),93.8%
same,residual activity,EPHB1 (human),85.6%
same,residual activity,PRKCE (human),106%
same,residual activity,ULK2 (human),107%
same,residual activity,INSRR (human),89.9%
same,residual activity,DAPK2 (human),120%
same,residual activity,MARK2 (human),97%
same,residual activity,MAPK14 (human),91.5%
Oc1cccc(-c2nc(N3CCOCC3)c3oc4ncccc4c3n2)c1,residual activity,MAP3K8 (human),99.2%
same,residual activity,FLT1 (human),83.6%
same,residual activity,PDPK1 (human),103%
same,residual activity,AURKA (human),91.9%
same,residual activity,CLK2 (human),88%
same,residual activity,INSR (human),98.6%
same,residual activity,FGFR1 (human),91.7%
same,residual activity,PDGFRB (human),99.2%
same,residual activity,GSK3A (human),90.2%
same,residual activity,PHKG2 (human),99.1%
same,residual activity,MARK1 (human),97.6%
same,residual activity,MAPK12 (human),93.4%
same,residual activity,PRKCB1 (human),97.8%
same,residual activity,PLK2 (human),94.7%
same,residual activity,RPS6KB1 (human),106%
same,residual activity,AURKB (human),99.4%
same,residual activity,TSSK2 (human),102%
same,residual activity,FGFR2 (human),95.7%
same,residual activity,PRKD3 (human),92.9%
same,residual activity,MAPK1 (human),89%
same,residual activity,JAK2 JH1 JH2 (human),92.6%
same,residual activity,TBK1 (human),93%
same,residual activity,PLK1 (human),97.9%
same,residual activity,WNK2 (human),119%
same,residual activity,RPS6KA1 KD1 KD2 (human),79.5%
same,residual activity,PAK3 (human),97.5%
same,residual activity,FYN (human),91.7%
same,residual activity,ERBB2 (human),105%
same,residual activity,GRK6 (human),98.2%
same,residual activity,MAPK13 (human),97.4%
same,residual activity,PRKACA (human),99.5%
same,residual activity,MAPKAPK5 (human),85.7%
same,residual activity,PIM2 (human),96.9%
same,residual activity,MUSK (human),87.8%
same,residual activity,TYRO3 (human),102%
same,residual activity,EPHB1 (human),89.6%
same,residual activity,PRKCE (human),100%
same,residual activity,ULK2 (human),106%
same,residual activity,INSRR (human),114%
same,residual activity,DAPK2 (human),117%
same,residual activity,MARK2 (human),92.9%
CNC(=O)c1cc(Oc2ccc(NC(=O)Nc3ccc(Cl)c(C(F)(F)F)c3)cc2)ccn1,residual activity,MAP3K8 (human),93.6%
same,residual activity,FLT1 (human),50.5%
same,residual activity,PDPK1 (human),95.8%
same,residual activity,AURKA (human),103%
same,residual activity,CLK2 (human),92.8%
same,residual activity,INSR (human),106%
same,residual activity,FGFR1 (human),90.9%
same,residual activity,PDGFRB (human),12%
same,residual activity,GSK3A (human),103%
same,residual activity,PHKG2 (human),91.3%
same,residual activity,MARK1 (human),80.3%
same,residual activity,MAPK12 (human),94.2%
same,residual activity,PRKCB1 (human),95.1%
same,residual activity,PLK2 (human),101%
same,residual activity,RPS6KB1 (human),91.4%
same,residual activity,TSSK2 (human),102%
same,residual activity,FGFR2 (human),72.7%
same,residual activity,PRKD3 (human),94%
same,residual activity,MAPK1 (human),101%
same,residual activity,JAK2 JH1 JH2 (human),98.2%
same,residual activity,TBK1 (human),98.6%
same,residual activity,PLK1 (human),98.1%
same,residual activity,WNK2 (human),101%
same,residual activity,RPS6KA1 KD1 KD2 (human),101%
same,residual activity,PAK3 (human),103%
same,residual activity,FYN (human),91.6%
same,residual activity,ERBB2 (human),103%
same,residual activity,GRK6 (human),107%
same,residual activity,MAPK13 (human),97.5%
same,residual activity,PRKACA (human),92.6%
same,residual activity,MAPKAPK5 (human),95.8%
same,residual activity,PIM2 (human),103%
same,residual activity,MUSK (human),101%
same,residual activity,TYRO3 (human),91.7%
same,residual activity,EPHB1 (human),102%
same,residual activity,PRKCE (human),96.4%
same,residual activity,ULK2 (human),106%
same,residual activity,INSRR (human),104%
same,residual activity,DAPK2 (human),111%
same,residual activity,MARK2 (human),94.9%
same,residual activity,MAPK14 (human),40.2%
Cc1ccc(Nc2nccc(N(C)c3ccc4c(C)n(C)nc4c3)n2)cc1S(N)(=O)=O,residual activity,MAP3K8 (human),95.2%
same,residual activity,FLT1 (human),27.2%
same,residual activity,PDPK1 (human),93%
same,residual activity,AURKA (human),38.4%
same,residual activity,CLK2 (human),90.9%
same,residual activity,INSR (human),107%
same,residual activity,PDGFRB (human),40.4%
same,residual activity,GSK3A (human),101%
same,residual activity,PHKG2 (human),96.7%
same,residual activity,MARK1 (human),99.9%
same,residual activity,MAPK12 (human),93.7%
same,residual activity,PRKCB1 (human),91%
same,residual activity,PLK2 (human),101%
same,residual activity,RPS6KB1 (human),96%
same,residual activity,AURKB (human),64.6%
same,residual activity,TSSK2 (human),102%
same,residual activity,FGFR2 (human),40.2%
same,residual activity,PRKD3 (human),90%
same,residual activity,MAPK1 (human),103%
same,residual activity,JAK2 JH1 JH2 (human),101%
same,residual activity,TBK1 (human),99.5%
same,residual activity,PLK1 (human),99.5%
same,residual activity,WNK2 (human),98.2%
same,residual activity,RPS6KA1 KD1 KD2 (human),92.8%
same,residual activity,PAK3 (human),90.6%
same,residual activity,ERBB2 (human),103%
same,residual activity,GRK6 (human),102%
same,residual activity,MAPK13 (human),94.6%
same,residual activity,PRKACA (human),94.5%
same,residual activity,MAPKAPK5 (human),100%
same,residual activity,PIM2 (human),101%
same,residual activity,MUSK (human),95.1%
same,residual activity,TYRO3 (human),92%
same,residual activity,EPHB1 (human),92.2%
same,residual activity,PRKCE (human),100%
same,residual activity,ULK2 (human),102%
same,residual activity,INSRR (human),96.1%
same,residual activity,DAPK2 (human),93%
same,residual activity,MARK2 (human),111%
same,residual activity,MAPK14 (human),91.2%
